{"source": "ChEMBL document CHEMBL1201862", "about": "“PubChem BioAssay data set” (2004)", "target": "Envelope glycoprotein gp160 (Human immunodeficiency virus 1, UniProt Q6QLK5)", "sequence (Q6QLK5 whole entry, the tested form may be a part)": "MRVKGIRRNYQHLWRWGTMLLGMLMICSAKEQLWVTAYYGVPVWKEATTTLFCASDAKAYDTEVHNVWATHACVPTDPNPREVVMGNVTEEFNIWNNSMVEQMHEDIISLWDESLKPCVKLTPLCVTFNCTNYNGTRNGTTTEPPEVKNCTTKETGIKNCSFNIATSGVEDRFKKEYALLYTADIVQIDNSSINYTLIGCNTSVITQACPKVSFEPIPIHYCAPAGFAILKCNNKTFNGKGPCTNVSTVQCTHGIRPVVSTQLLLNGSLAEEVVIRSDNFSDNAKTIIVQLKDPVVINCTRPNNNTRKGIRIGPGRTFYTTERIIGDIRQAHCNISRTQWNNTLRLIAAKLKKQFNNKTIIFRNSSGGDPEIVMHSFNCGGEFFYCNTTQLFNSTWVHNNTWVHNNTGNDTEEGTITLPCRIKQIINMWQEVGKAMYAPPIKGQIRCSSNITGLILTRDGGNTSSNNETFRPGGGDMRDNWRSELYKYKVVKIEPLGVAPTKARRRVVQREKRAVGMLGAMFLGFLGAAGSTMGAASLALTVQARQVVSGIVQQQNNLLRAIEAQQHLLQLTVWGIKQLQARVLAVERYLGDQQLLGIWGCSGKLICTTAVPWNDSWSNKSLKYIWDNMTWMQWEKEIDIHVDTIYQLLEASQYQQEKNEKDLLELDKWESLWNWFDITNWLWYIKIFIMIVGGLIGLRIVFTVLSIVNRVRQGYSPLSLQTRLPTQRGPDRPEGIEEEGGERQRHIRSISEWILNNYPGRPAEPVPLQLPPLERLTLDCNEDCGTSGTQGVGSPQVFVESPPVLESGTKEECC", "assay": "cell-free HIV fusion peptide-binding blockers – biochemical, uHTS, fluorescence dequenching, […] (AID 1986)", "note": "The source made the active and inactive calls. Rule as the data show it: actives have a measured IC50 and inactives only a lower limit."}
{"compound": "CC(/C=C1\\SC(=S)N(c2ccc(C(=O)O)cc2)C1=O)=C\\c1ccccc1", "values": [{"measurement": "IC50", "result": "16.2 µM (active)"}]}
{"compound": "C=CCOc1ccc(C(c2c(C(=O)O)[nH]c3ccccc23)c2c(C(=O)O)[nH]c3ccccc23)cc1", "values": [{"measurement": "IC50", "result": "5.01 µM (active)"}]}
